In brackets after ≈: the same amount, converted by molar mass.
Experiments:
[1] = tested on: Human immunodeficiency virus; assay: Antiviral activity against HIV; format: functional, organism-based; settings: Human immunodeficiency virus 1
[2] = tested on: HepG2; assay: Growth inhibition of human HepG2 cells; format: functional
[3] = tested on: Jurkat; assay: Cytotoxicity against human Jurkat cells after 72 hrs by microtitre plate assay; format: functional, cell-based
[4] = […] activity against Eupenicillium abidjanum IFO 8939; format: functional; settings: Penicillium abidjanum
[5] = tested on: LNCaP; assay: Antitumor activity against human LNCaP cells; format: functional, cell-based
[6] = tested on: CWR22R; assay: Antitumor activity against human CWR22R cells; format: functional, cell-based; settings: 22Rv1
[7] = tested on: PC-3; assay: Antitumor activity against human PC-3 cells; format: functional, cell-based
[8] = Cytotoxicity against mouse NS-1 cells after 72 hrs by microtitre plate assay; format: functional, cell-based; settings: NS1, 72 h

SMILES: CS[C@@]12CC3=CC=C[C@H](O)[C@H]3N1C(=O)[C@@]13C[C@@H]4[C@@H]([C@@H](O)[C@@H](C[C@@H]4O)S1)N3C2=O
- IC50 [1]: 10 µM

SMILES: CS[C@@]12C[C@H]3C(=O)CC[C@H](O)[C@H]3N1C(=O)[C@@]13C[C@@H]4[C@@H]([C@@H](O)C=C[C@@H]4S1)N3C2=O
- IC50 [1]: 10 µM

SMILES: CS[C@@]12C[C@H]3C(=O)CC[C@H](O)[C@H]3N1C(=O)[C@@]13C[C@@H]4[C@@H]([C@@H](O)[C@@H](C[C@@H]4O)S1)N3C2=O
- IC50 [1]: 10 µM

SMILES: CSC1c2ccccc2O[C@]12C(=O)N1O[C@]3(CCC=CC3=O)[C@@H](O)C1(SC)C(=O)N2C (stereo not given in full)
- GI50 [2]: 8 µM

SMILES: CS[C@@]12CC3=CC=C[C@H](O)[C@H]3N1C(=O)[C@@]13C[C@H]4C(=O)C[C@@H](SS1)[C@H](O)[C@H]4N3C2=O
- IC50 [1]: 16 µM

SMILES: CS[C@@]12C[C@H]3C(=O)CC[C@H](O)[C@H]3N1C(=O)[C@@]13C[C@H]4C(=O)C[C@@H](S1)[C@H](O)[C@H]4N3C2=O [EPICOCCIN O]
- IC50 [1]: 10 µM

SMILES: COc1ccc([C@H]2SS[C@@]34C[C@]5(O)[C@H](Cl)C=C[C@@H](O)[C@@H]5ON3C(=O)[C@@H]2NC4=O)c(O)c1OC
- IC50 [3]: 5.1 µM

SMILES: COc1ccc([C@H]2SS[C@@]34C[C@]56O[C@H]5C=C[C@@H](O)[C@@H]6ON3C(=O)[C@@H]2N(C)C4=O)c(O)c1OC
- MIC [4]: 10 µg/mL (≈ 20.2 µM)

SMILES: CS[C@@]12CC3=CC=C[C@H](O)[C@H]3N1C(=O)[C@]13C[C@H]4C(=O)[C@H](C[C@H](O)[C@H]4N1C2=O)S3
- IC50 [1]: 10 µM

SMILES: COc1ccc([C@H]2SS[C@@]34C[C@]5(O)[C@H](Cl)C=C[C@@H](O)[C@@H]5ON3C(=O)[C@@H]2N(C)C4=O)c(O)c1OC
- IC50 [5]: 1.8 µM
- IC50 [6]: 0.51 µM
- IC50 [7]: 5.1 µM

SMILES: CS[C@@]12CC3=CC=C[C@H](O)[C@H]3N1C(=O)[C@@]13C[C@H]4C(=O)C[C@@H](S1)[C@H](O)[C@H]4N3C2=O
- IC50 [1]: 10 µM

SMILES: COc1ccc2cc(NC(=O)[C@@]34C[C@]5(O)[C@@H](C=C[C@@H](O)[C@@H]5ON3)SS4)c(=O)oc2c1OC
- IC50 [3]: 1.3 µM
- IC50 [8]: 10 µM
